{"source": "patent US20240277717A1", "about": "“APPLICATION OF GANCICLOVIR IN PREPAPRATION OF MEDICINE FOR TREATING ALLERGIC RHINITIS” (Union Hospital, Tongji Medical College, Huazhong University …, priority 2023, published 2024)", "key": {"[1]": {"tested_on": "eosinophils in nasal secretions", "experiment": "Nasal secretion smears, percentage of eosinophils in inflammatory cells", "type": "in vivo, human", "text": "The patients blow their nose (both sides), or gently rotate a glass rod at a front end of the patients' nasal vestibule to obtain the nasal secretions, avoiding rubbing the mucosal surface as much as possible. The obtained nasal secretions are evenly and lightly coated on slides, and a coverage area of the nasal secretion smear is required to exceed ⅔ of the slides. After natural air drying, the slides are dyed with Wright-Giemsa stain (Baso Diagnostics Inc. Zhuhai; China). After dyeing, cells are counted under an optical microscope. A percentage of eosinophils in inflammatory cells under 10×100 times microscope is observed, and an average value of 5 visual fields is taken as a result."}, "[2]": {"tested_on": "EB virus, human-cytomegalovirus, HSV 1, 2, 3, 6, 7, 8", "experiment": "DNA virus sequence enrichment analysis of nasal scraping cells", "type": "in vivo", "details": "GCV effective group", "method": "The scraped mucosal epithelial cells are placed in a TRIzol™ reagent (Invitrogen™) and stored in liquid nitrogen for processing. Library preparation and high-throughput sequencing, data analysis, ribonucleic acid (RNA) sequence and deoxyribonucleic acid (DNA) virus sequence enrichment analysis are performed by Seqhealth Technology Co., Ltd. (China; wuhan). Sample quality analysis is performed by Nanodrop™ OneC spectrophotometer to detect expression at A260 and A280. Qualified samples are finally quantified by QubitR®3.0 fluorometer and Qubit™ RNA broad-range (BR) Assay kits. The original data is first filtered by Trimomatic (Version 0.36). Counting by FeatureCounts, and then calculate reads per kilobase of exon model per million mapped reads (RPKM). Differentially expressed genes between groups are identified using an edgeR package (Version 3.12.1). In analysis, P value<0.05 and fold change (FC) higher than 2 are considered to be significant differences in gene expression between groups."}, "[3]": {"tested_on": "peripheral blood mononuclear cells (PBMCs)", "experiment": "GCV medicine test of the PBMCs in vitro (flow cytometry)", "type": "cell-based, human", "details": "400 μM GCV, 48 hours", "method": "The peripheral blood of patients with the intractable AR is collected. The peripheral blood mononuclear cells (PBMCs) are isolated within 8 hours using a lymphocyte separation medium (MP biomedicals) and suspended in Roswell Park Memorial Institute (RPMI) 1640 medium (Gibco™) containing 10% heat-inactivated fetal bovine serum (Gibco™, Grand Island) and 1% penicillin and streptomycin (Gibco™) at a density of 1×10^6/mL. Three wells are set for each sample, including: a non treated well (also referred to as NT well), a well adding 1 microliter (μL) dimethyl sulfoxide (DMSO; Solarbio®) (also referred to as DMSO well), and a well adding 400 micromoles per liter (μM) of the GCV (diluted with DMSO, Selleck) (also referred to as GCV well). The PBMCs are cultured in a 24-well cell culture plate (Corning®, NY) under different stimulations in a 5% CO2, 37° C. cell incubator. According to the instructions of Leukocyte Activation Cocktail with BD GolgiPlug™ (BD Bioscience), the PBMCs are added to a cell culture medium 4-6 hours before dyeing to improve the dyeing effect of intracellular cytokines. After 48 hours of cell culture, the cell solution is collected and dyed with anti-human fixable viability stain 510 (FVS-BV510), brilliant violet 605 anti-human cluster of differentiation 4 antibody (CD4-BV605), and […] isothiocyanate isomer I (CD8-FITC), and then dyed with interleukin-4-brilliant violet™ 421 dyes (IL-4-BV421), interleukin-17A-phycoerythrin (IL-17A-PE), human interferon-gamma-PE-cyanine7 dye (IFNγ-PE-Cy7), and FOXP3-BB700 (all from BD Bioscience) after breaking the nucleus with a fixed nuclear breaker (eBioscience™). BD LSRFortessa™ X-20 (BD Biosciences, USA) and FlowJo™ software (FlowJo, Ashland, OR USA) are used for analysis."}, "[4]": {"details": "PBMCs of GCV effective and ineffective groups"}}, "note": "“Also recorded” adds a separate entry of the source."}
{"smiles": "Nc1nc(O)c2ncn(COC(CO)CO)c2n1", "note": "[GCV, Ganciclovir]", "values": [{"measurement": "percentage of eosinophils in nasal secretions, change after GCV treatment", "setting": "[1]; GCV effective group and GCV ineffective group", "result": "no significant change"}, {"measurement": "Nasal secretion eosinophils, after treatment", "setting": "[1]; GCV effective group, before 90.54 ± 6.24", "result": "93.23 ± 11.99", "unit": "%"}, {"measurement": "Nasal secretion eosinophils, after treatment", "setting": "[1]; GCV ineffective group, before 56 ± 46.30", "result": "54 ± 44.54", "unit": "%"}, {"measurement": "enrichment of genes of EB virus, human-cytomegalovirus, HSV 1, 2, 3, 6, 7, 8 before and after GCV treatment (FIG. 3B)", "setting": "[2]", "result": "no statistical difference"}, {"measurement": "percentage of CD4+IFNγ+ cells, change", "setting": "[3]; [4]", "result": "no significant change"}, {"measurement": "percentage of CD4+IL4+ cells, change", "setting": "[3]; [4]", "result": "no significant change"}, {"measurement": "percentage of CD4+IL17A+ cells, change", "setting": "[3]; [4]", "result": "no significant change"}, {"measurement": "percentage of CD8+IFNγ+ cells/CD4+, change", "setting": "[3]; [4]", "result": "no significant change"}, {"measurement": "percentage of CD4+FOXP3+ cells/CD4+ cells, GCV well vs DMSO well", "setting": "[3]; PBMCs of GCV effective group n=26, p<0.001", "result": "significantly increased; also recorded: significantly higher"}, {"measurement": "percentage of CD4+FOXP3+ cells/CD4+ cells, GCV well vs DMSO well", "setting": "[3]; PBMCs of GCV ineffective group n=14, p<0.05", "result": "significantly lower"}]}
